According to ChEMBL document CHEMBL1153889, “Psammaplin A as a general activator of cell-based signaling assays via HDAC inhibition and studies on some bromotyrosine derivatives” (Bioorg Med Chem, 2009):
Calls of active or inactive are those of the source. The calls are words filed in the database; no cut-off is given here.

Columns and labels:
[1] = target: Protein Wnt-3a (Mus musculus) (UniProt P27467); experiment: Activation of mouse Wnt3a signaling expressed in HEK293 STF cells assessed as increase in transcriptional activity after 24 hrs by luciferase reporter gene-based lactate dehydrogenase assay; format: cell-based
[2] = tested on: HEK293; experiment: Activation of Neuropeptide S receptor I107 mutant expressed in HEK293 cells assessed as increase in transcriptional activity after 24 hrs by luciferase reporter gene-based lactate dehydrogenase assay; format: cell-based

Sequence of Protein Wnt-3a (Mus musculus) (P27467 whole entry): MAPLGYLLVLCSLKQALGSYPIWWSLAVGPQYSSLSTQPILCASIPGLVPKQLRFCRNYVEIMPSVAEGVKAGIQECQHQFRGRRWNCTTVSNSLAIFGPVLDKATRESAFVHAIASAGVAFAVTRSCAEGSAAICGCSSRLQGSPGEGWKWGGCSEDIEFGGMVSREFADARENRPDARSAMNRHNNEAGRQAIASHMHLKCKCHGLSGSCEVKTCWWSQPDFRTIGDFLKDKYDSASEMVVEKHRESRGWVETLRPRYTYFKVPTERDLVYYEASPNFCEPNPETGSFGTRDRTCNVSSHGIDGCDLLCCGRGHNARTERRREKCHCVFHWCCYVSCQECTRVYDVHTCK

| Activity [1] | SMILES | Activity [2] |
| --- | --- | --- |
| Active | CC(/C=C/C(=O)NO)=C\[C@@H](C)C(=O)c1ccc(N(C)C)cc1 |  |
| Active | Nc1ccccc1NC(=O)c1ccc(CNC(=O)OCc2cccnc2)cc1 |  |
| Active | O=C(NCCSSCCNC(=O)/C(Cc1ccc(O)c(Br)c1)=N/O)/C(Cc1ccc(O)c(Br)c1)=N/O | Active |
| Active | O=C(CCCCCCC(=O)Nc1ccccc1)NO |  |
